Reference: patent US20110112100A1, “Hepatitis C Virus Inhibitors” (priority 2009, published 2011)
Counter-ions that a name gives are not always drawn. Like-named read-outs stand apart in the source and are kept apart here.

Tests used:
[1] = system: 1a-H77 replicon cells; test: HCV 1a replicon inhibitory activity (Renilla luciferase); type: cell-based, hepatitis C virus; settings: Hepatitis C virus, read-out: IC50 value (95% Confidence Intervals) pM Replicon 1A assay
How it was run: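 Replicon cells in DMEM + 10% FCS incubated 48 hours at 37° C., 5% CO2 with 1-in-3 serial dilutions of compound prepared in DMSO. Replication read as Renilla luciferase luminescence after lysis. EC50 taken from log concentration-response curves.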

[2] = system: 1b (con1) replicon cells; test: HCV 1b replicon inhibitory activity (luciferase, Britelite Plus); type: cell-based, hepatitis C virus; settings: Hepatitis C virus, read-out: IC50 value (95% Confidence Intervals) pM Replicon 1B assay
How it was run: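 1b (con1) luciferase replicon cells in DMEM + 10% FCS were exposed to 1-in-3 DMSO compound dilutions for 48 h at 37° C, 5% CO2. Luminescence was read 1-15 min after Britelite Plus addition; EC50 came from log concentration-response curves.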

[3] = Plasma protein binding, Rapid Equilibrium Dialysis; type: in vitro ADME; settings: human plasma proteins
Experimental: Plasma binding free fractions (fu) were determined using a proprietary validated Rapid Equilibrium Dialysis (RED) device (Thermofisher). The analyte was spiked to a concentration of 2 μM in pre-prepared male CD rat plasma and 220 μl aliquots (n=4) were loaded into a RED device. The samples were dialysed vs. 350 μl of dulbeccos phosphate buffered saline (dPBS) for 4 h at 37° C. in a CO2 incubator in order to reach equilibrium. After 4 hours, 45 μl buffer and 15 μl plasma aliquots were taken and added to a 200 μl 384-well polypropylene plate. Respective volumes of control buffer were added to the plasma or control plasma was added to the buffer samples to give an identical matrix between samples. The samples were then crashed in 120 μl of acetonitrile and analysed via LC-MS/MS.
For highly bound compounds in the potency assay, which includes 10% foetal calf serum, measured potencies may not reflect real intrinsic potency due to a significant degree of compound binding.

[4] = Compound induced cytotoxicity in HCV replicon cell lines (WST-1 reagent); type: cell-based; settings: human, WST-1, 48 hours, in 1 experiment
Experimental: Test compounds were solubilised to 4 mM in 100% DMSO. Dilutions were made to the desired starting concentration in 100% DMSO and then 1 in 3 dilutions made, again in 100% DMSO. 0.5 μl of each sample was added to 384-well assay plates. White Lumitrac (Greiner) plates were used for the 1a and 1b replicon assays and black, clear bottomed (Greiner) plates were used for the WST-1 cytotoxity assay.
1b (con1) replicon cells were resuspended to a concentration of 1.4×10^5 cells/ml by addition of pre-warmed medium (DMEM+10% FCS). 50 μl of this suspension was added to each well of a 384-well assay plate (Black, clear bottomed, Greiner) already containing 0.5 μl of test compound.
All plates were covered with gas permeable seals and incubated at 37° C., 5% CO2 for 48 hours. After 48 hours, 5 μl WST-1 reagent (Roche, 11 644 807 001) was added to each well and the plate returned to the incubator for 3 hours. After this incubation period absorbance was read at 450 nm on an EnVision (Perkin Elmer) plate reader. The half maximal cytotoxic concentration (CC50) values were calculated for each compound by constructing log concentration-response curves.
All of the exemplified compounds have been screened in a cell proliferation assay (WST-1). A majority have […] in at least 2 independent experiments, the exceptions being the compounds of examples 1, 10, 12, 23, 25, 37, 47, 48, 49, 52, 56, 57, 58, 60, 67, 68, 69, 70, 71, 72, 73, 74, 79, 81 and 84 which have CC50 values>2 μM in 1 experiment, and example 20 where the CC50 is reported as >10 nM (in this instance the top concentration tested in the assay was 10 nM).

[5] = geometric mean, 95% confidence intervals in parentheses, 48 hours, medium with 10% FCS

SMILES	IC50 [1, 5] [pM]	IC50 [2, 5] [pM]	fraction unbound at 4 h, 2 µM [3]	IC50 ([1]; 48 h) [pM]	IC50 ([2]; 48 h) [pM]	CC50 at 48 h [4] [nM]	CC50 at 48 h ([4]; 1b (con1) HCV replicon cells) [nM]
COC(=O)N[C@H](C(=O)N1CCC[C@H]1c1ncc(-c2ccc(-c3ccc4cc(-c5cnc([C@@H]6CCCN6C(=O)[C@@H](NC(=O)OC)C(C)C)[nH]5)ccc4c3)cc2)[nH]1)C(C)C [Example 2, Methyl {(2S)-1-[(2S)-2-{5-[6-(4-{2-[(2S)-1-{(2S)-2-[(methoxycarbonyl)amino]-3-methyl-butanoyl}pyrrolidin-2-yl]-1H-imidazol-4-yl}phenyl)naphthalen-2-yl]-1H-imidazol-2-yl}pyrrolidin-1-yl]-3-methyl-1-oxobutan-2-yl}carbamate]	22.3	2.37	0.001	–	–	–	–
COC(=O)N[C@H](C(=O)N1CCC[C@H]1c1nc(-c2ccc(-c3cnc4cc(-c5cnc([C@@H]6CCCN6C(=O)[C@@H](NC(=O)OC)[C@@H](C)O)[nH]5)ccc4n3)cc2)c[nH]1)C(C)C [Example 60, Methyl {(2S)-1-[(2S)-2-{4-[4-(6-{2-[(2S)-1-{(2S,3R)-3-hydroxy-2-[(methoxycarbonyl)amino]butanoyl}pyrrolidin-2-yl]-1H-imidazol-5-yl}quinoxalin-2-yl)phenyl]-1H-imidazol-2-yl}pyrrolidin-1-yl]-3-methyl-1-oxobutan-2-yl}carbamate trifluoroacetic acid salt]	–	–	–	22.3	23.7	> 2000	–
COC(=O)N[C@@H](CCS(C)(=O)=O)C(=O)N1CCC[C@H]1c1ncc(-c2ccc3nc(-c4ccc(-c5c[nH]c([C@@H]6CCCN6C(=O)[C@@H](NC(=O)OC)C(C)C)n5)cc4)cnc3c2)[nH]1 [Example 67, methyl [(2S)-1-[(2S)-2-{5-[2-(4-{2-[(2S)-1-{(2S)-2-[(methoxycarbonyl)amino]-3-methylbutanoyl}pyrrolidin-2-yl]-1H-imidazol-4-yl}phenyl)quinoxalin-6-yl]-1H-imidazol-2-yl}pyrrolidin-1-yl]-4-(methylsulfonyl)-1-oxobutan-2-yl]carbamate trifluoroacetic acid salt]	–	–	–	27.5	74.8	–	> 2000
COC[C@H](NC(=O)OC)C(=O)N1CCC[C@H]1c1ncc(-c2ccc3nc(-c4ccc(-c5c[nH]c([C@@H]6CCCN6C(=O)[C@@H](NC(=O)OC)C(C)C)n5)cc4)cnc3c2)[nH]1 [Example 69, Methyl {(2S)-1-[(2S)-2-{4-[4-(6-{2-[(2S)-1-{(2S)-3-methoxy-2-[(methoxycarbonyl)amino]propanoyl}pyrrolidin-2-yl]-1H-imidazol-5-yl}quinoxalin-2-yl)phenyl]-1H-imidazol-2-yl}pyrrolidin-1-yl]-3-methyl-1-oxobutan-2-yl}carbamate trifluoroacetic acid salt]	–	–	–	22.3	19.6	–	> 2000
COC(=O)N[C@H](C(=O)N1CCC[C@H]1c1nc(-c2ccc(-c3cnc4cc(-c5cnc([C@@H]6CCCN6C(=O)[C@@H](NC(=O)OC)C(C)(C)C)[nH]5)ccc4n3)cc2)c[nH]1)C(C)C [Example 70, Methyl {(2S)-1-[(2S)-2-{4-[4-(6-{2-[(2S)-1-{(2S)-2-[(methoxycarbonyl)amino]-3,3-dimethylbutanoyl}pyrrolidin-2-yl]-1H-imidazol-5-yl}quinoxalin-2-yl)phenyl]-1H-imidazol-2-yl}pyrrolidin-1-yl]-3-methyl-1-oxobutan-2-yl}carbamate trifluoroacetic acid salt]	–	–	–	9.13	5.17	–	> 2000
COC(=O)NC(C(=O)N1CCC[C@H]1c1ncc(-c2ccc3nc(-c4ccc(-c5c[nH]c([C@@H]6CCCN6C(=O)[C@@H](NC(=O)OC)C(C)C)n5)cc4)cnc3c2)[nH]1)C1CCOCC1 (stereo partly drawn) [Example 71, Methyl {(2S)-1-[(2S)-2-{4-[4-(6-{2-[(2S)-1-{[(methoxycarbonyl)amino](tetrahydro-2H-pyran-4-yl)acetyl}pyrrolidin-2-yl]-1H-imidazol-5-yl}quinoxalin-2-yl)phenyl]-1H-imidazol-2-yl}pyrrolidin-1-yl]-3-methyl-1-oxobutan-2-yl}carbamate]	30.7	23.7	–	–	–	–	> 2000
COC(=O)N[C@H](C(=O)N1CCC[C@H]1c1nc(-c2ccc(-c3cnc4cc(-c5cnc([C@@H]6CCCN6C(=O)[C@@H](CCc6ccccc6)NC(=O)OC)[nH]5)ccc4n3)cc2)c[nH]1)C(C)C [Example 72, Methyl {(2R)-1-[(2S)-2-{5-[2-(4-{2-[(2S)-1-{(2S)-2-[(methoxycarbonyl)amino]-3-methylbutanoyl}pyrrolidin-2-yl]-1H-imidazol-4-yl}phenyl)quinoxalin-6-yl]-1H-imidazol-2-yl}pyrrolidin-1-yl]-1-oxo-4-phenylbutan-2-yl}carbamate trifluoroacetic acid salt]	–	–	–	53.6	7.81	–	> 2000
COC(=O)N[C@H](C(=O)N1CCC[C@H]1c1nc(-c2ccc(-c3cnc4cc(-c5cnc([C@@H]6CCCN6C(=O)[C@H](NC(=O)OC)C(C)(C)C)[nH]5)ccc4n3)cc2)c[nH]1)C(C)C [Example 73, Methyl {(2S)-1-[(2S)-2-{4-[4-(6-{2-[(2S)-1-{(2R)-2-[(methoxycarbonyl)amino]-3,3-dimethylbutanoyl}pyrrolidin-2-yl]-1H-imidazol-5-yl}quinoxalin-2-yl)phenyl]-1H-imidazol-2-yl}pyrrolidin-1-yl]-3-methyl-1-oxobutan-2-yl}carbamate trifluoroacetic acid salt]	–	–	–	13.3	8.11	–	> 2000
COC(=O)N[C@H](C(=O)N1CCC[C@H]1c1nc(-c2ccc(-c3cnc4cc(-c5cnc([C@@H]6CCCN6C(=O)[C@@H](NC(=O)OC)[C@@H](C)OC(C)(C)C)[nH]5)ccc4n3)cc2)c[nH]1)C(C)C [Example 74, Methyl {(2S)-1-[(2S)-2-{4-[4-(6-{2-[(2S)-1-{(2S,3R)-3-tert-butoxy-2-[(methoxycarbonyl)amino]butanoyl}pyrrolidin-2-yl]-1H-imidazol-5-yl}quinoxalin-2-yl)phenyl]-1H-imidazol-2-yl}pyrrolidin-1-yl]-3-methyl-1-oxobutan-2-yl)carbamate]	43.7	14.2	–	–	–	–	> 2000
COC(=O)N[C@@H](CCc1ccccc1)C(=O)N1CCC[C@H]1c1ncc(-c2ccc3nc(-c4ccc(-c5c[nH]c([C@@H]6CCCN6C(=O)[C@@H](NC(=O)OC)C(C)C)n5)cc4)cnc3c2)[nH]1 [Example 79, Methyl {(2S)-1-[(2S)-2-{5-[2-(4-{2-[(2S)-1-{(2S)-2-[(methoxycarbonyl)amino]-3-methylbutanoyl}pyrrolidin-2-yl]-1H-imidazol-4-yl}phenyl)quinoxalin-6-yl]-1H-imidazol-2-yl]pyrrolidin-1-yl]-1-oxo-4-phenylbutan-2-yl}carbamate trifluoroacetic acid salt]	–	–	–	47.6	11.7	–	> 2000
COC(=O)N[C@H](C(=O)N1CCC[C@H]1c1nc(-c2ccc(-c3cnc4cc(-c5cnc([C@@H]6CCCN6C(=O)[C@H](NC(=O)OC)c6ccccc6)[nH]5)ccc4n3)cc2)c[nH]1)C(C)C [Example 84, Methyl {(2S)-1-[(2S)-2-{4-[4-(6-{2-[(2S)-1-{(2R)-2-[(methoxycarbonyl)amino]-2-phenylacetyl}pyrrolidin-2-yl]-1H-imidazol-5-yl}quinoxalin-2-yl)phenyl]-1H-imidazol-2-yl}pyrrolidin-1-yl]-3-methyl-1-oxobutan-2-yl}carbamate trifluoroacetic acid salt]	–	–	–	19	10.9	–	> 2000
